Here are results for three compounds from EP1383722B1, “INHIBITION OF POPCORN POLYMER GROWTH” (BAKER HUGHES INCORPORATED, priority 2001, dated 2002).

This experiment is described as follows: Popcorn Polymer Glass Tube Reaction Test Method. The following applies: total additive 250 ppm, 60°C, 14 to 28 days. How it is done: The Popcorn Polymer Glass Tube Reaction Method allows for the evaluation of many samples at once, and may be described as follows: • 1. Obtain butadiene popcorn polymer "seeds" (in the Examples of this invention the seeds were obtained in 1996 from a BD holding tank). Activate popcorn polymer "seeds" overnight with a 150 watt flood lamp. The "seeds" are firstplaced in a petri dish and covered. Then they are exposed to white light from the lamp for approximately 20 hours. The lamp is positioned 12 inches (30.5 cm) above the dish. • 2. To glass reaction vessels add 1 ml of deionized water. To the glass reaction vessel and water place approximately 0.6200 gms of BD popcorn "seed". Add inhibitor, if any, into the water and seal the reaction vessel with a TEFLON adapter. Completely seal off the adapter by use of a metal adapter plug. Using a gas-tight syringe, inject 15mls of butadiene monomer into the reaction vessel by way of a septum port located at the top of the TEFLON adapter. • 3. Next, place the reaction vessel containing BD popcorn "seed" and butadiene monomer into a block incubator bath which is capable of maintaining a constant temperature of 60°C. Allow the test to run for 14 to 28 days. Remove the reaction vessel from the incubator bath. • 4. Vent the BD out of the vessel by slowly opening the metal adapter plug. Slowly open the reaction vessel and decant the water/BD mixture. Rinse the wet polymer with n-heptane until most of the n-heptane is essentially clear of haze. Blow dry nitrogen into the reaction vessel to further dry the poly-mer. Remove the popcorn polymer carefully with tweezers and spatula and place in a 100 ml beaker. Wash the popcorn polymer material three times with 30 ml aliquots of n-heptane. • 5. Transfer the popcorn polymer sample into a petri dish. Place dish into a vacuum oven. Dry sample at 212°F (100°C) under a 30 mmHg vacuum for 30 minutes. Remove dish and sample from oven. Place dish and popcorn polymer sample in a desiccator. Cool for 1 hour and record the weight of the popcorn polymer. The weight of new polymer growth can be obtained by subtracting the original seed weight from the total popcom polymer weight.

In the case of `CC1(C)CCCC(C)(C)N1[O]` [compound 7, 2,2,6,6-tetramethyl-1-piperidinyloxyl], for the setting “Table II”, the “%Inhibition” value was found to be 50% and the “Polymer formed mg/15ml” value is 550 mg/15ml. Besides, where the note is “Table III”, the “%Inhibition” value is 83% and the “Polymer formed mg/15ml” value is 80 mg/15ml.

In the case of `COc1cc(C(C)(C)C)c(O)c(C(C)(C)C)c1` [compound 19, 2,6-di-tert-butyl-4-methoxyphenol], under “Table III”, the “%Inhibition” value was found to be 77% and the “Polymer formed mg/15ml” value turned out to be 108 mg/15ml.

Consider `CC(C)(C)c1cc(O)ccc1O` [compound 8, tert-butyl hydroquinone], for which, for the setting “Table II”, the “%Inhibition” value is reported as 30% and the “Polymer formed mg/15ml” value was determined as 770 mg/15ml.
